Assay results published in ChEMBL document CHEMBL1133545, “Inhibition of monoamine oxidases by functionalized coumarin derivatives: biological activities, QSARs, and 3D-QSARs” (J Med Chem, 2000).

Tests used:
[1] = biological target: T1, Amine oxidase [flavin-containing] A (Rattus norvegicus, UniProt P21396)
T1 sequence (P21396 whole entry): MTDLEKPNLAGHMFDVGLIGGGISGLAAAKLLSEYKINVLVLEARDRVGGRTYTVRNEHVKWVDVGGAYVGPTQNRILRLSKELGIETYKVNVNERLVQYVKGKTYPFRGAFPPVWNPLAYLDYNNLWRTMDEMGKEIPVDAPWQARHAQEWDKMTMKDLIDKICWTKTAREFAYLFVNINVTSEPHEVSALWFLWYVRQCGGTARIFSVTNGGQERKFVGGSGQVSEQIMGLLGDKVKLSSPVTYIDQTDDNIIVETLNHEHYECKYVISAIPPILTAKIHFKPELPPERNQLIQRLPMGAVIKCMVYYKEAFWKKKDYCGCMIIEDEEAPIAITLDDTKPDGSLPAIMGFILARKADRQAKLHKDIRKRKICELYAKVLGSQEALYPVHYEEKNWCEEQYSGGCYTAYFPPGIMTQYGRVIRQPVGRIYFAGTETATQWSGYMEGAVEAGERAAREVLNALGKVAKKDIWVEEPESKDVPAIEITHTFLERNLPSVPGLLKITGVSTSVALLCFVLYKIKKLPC

[2] = biological target: T2, Amine oxidase [flavin-containing] B (Rattus norvegicus, UniProt P19643)
T2 sequence (P19643 whole entry): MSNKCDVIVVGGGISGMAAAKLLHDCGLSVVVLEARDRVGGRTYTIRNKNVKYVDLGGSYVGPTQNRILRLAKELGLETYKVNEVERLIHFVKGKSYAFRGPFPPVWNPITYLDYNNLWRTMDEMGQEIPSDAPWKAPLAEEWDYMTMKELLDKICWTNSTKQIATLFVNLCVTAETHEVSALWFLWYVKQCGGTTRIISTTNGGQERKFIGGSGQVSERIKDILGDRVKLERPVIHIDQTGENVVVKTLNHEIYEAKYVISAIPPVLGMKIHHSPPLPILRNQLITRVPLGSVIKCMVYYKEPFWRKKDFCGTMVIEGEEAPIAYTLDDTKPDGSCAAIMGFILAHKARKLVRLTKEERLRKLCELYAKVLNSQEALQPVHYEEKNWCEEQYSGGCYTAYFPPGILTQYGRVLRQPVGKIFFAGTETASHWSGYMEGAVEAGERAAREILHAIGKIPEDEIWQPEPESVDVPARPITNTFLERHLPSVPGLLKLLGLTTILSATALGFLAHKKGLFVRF

[3] = biological target: T1, Amine oxidase [flavin-containing] A; remark: listed apart in the source
Description: Compound was tested for its inhibitory effect on Monoamine oxidase A at 15 uM

[4] = biological target: T2, Amine oxidase [flavin-containing] B; remark: listed apart in the source
[5] = biological target: T1, Amine oxidase [flavin-containing] A; remark: listed apart in the source
Description: Compound was tested for its inhibitory effect on Monoamine oxidase A at 1 uM

[6] = biological target: T1, Amine oxidase [flavin-containing] A; remark: listed apart in the source
Description: Compound was tested for its inhibitory effect on MAO-A ( Monoamine Oxidase) at 50 uM

[7] = biological target: T2, Amine oxidase [flavin-containing] B; remark: listed apart in the source
Description: Compound was tested for its inhibitory effect on MAO-B ( Monoamine Oxidase) at 4 uM

[8] = biological target: T1, Amine oxidase [flavin-containing] A; remark: listed apart in the source
Description: Compound was tested for its inhibitory effect on Monoamine oxidase A at 30 uM

[9] = biological target: T1, Amine oxidase [flavin-containing] A; remark: listed apart in the source
Description: Compound was tested for its inhibitory effect on Monoamine oxidase A at 20 uM)

[10] = biological target: T2, Amine oxidase [flavin-containing] B; remark: listed apart in the source
Description: (§1) Compound was tested for its inhibitory effect on Monoamine oxidase B at 3 uM

[11] = biological target: T1, Amine oxidase [flavin-containing] A; remark: listed apart in the source
Description: Compound was tested for its inhibitory effect on Monoamine oxidase A at 3 uM

[12] = biological target: T1, Amine oxidase [flavin-containing] A; remark: listed apart in the source
Description: Compound was tested for its inhibitory effect on Monoamine oxidase A at 50 uM

[13] = biological target: T1, Amine oxidase [flavin-containing] A; remark: listed apart in the source
Description: Compound was tested for its inhibitory effect on Monoamine oxidase A at 2 uM

[14] = biological target: T2, Amine oxidase [flavin-containing] B; remark: listed apart in the source
Description: as §1

[15] = biological target: T1, Amine oxidase [flavin-containing] A; remark: listed apart in the source
Description: Compound was tested for its inhibitory effect on Monoamine oxidase A at 8 uM

[16] = biological target: T1, Amine oxidase [flavin-containing] A; remark: listed apart in the source
Description: (§2) Compound was tested for its inhibitory effect on MAO-A ( Monoamine Oxidase) at 100 uM

[17] = biological target: T2, Amine oxidase [flavin-containing] B; remark: listed apart in the source
Description: (§3) Compound was tested for its inhibitory effect on MAO-B ( Monoamine Oxidase) at 100 uM

[18] = biological target: T1, Amine oxidase [flavin-containing] A; remark: listed apart in the source
Description: Compound was tested for its inhibitory effect on Monoamine oxidase A at 5 uM

[19] = biological target: T2, Amine oxidase [flavin-containing] B; remark: listed apart in the source
Description: Compound was tested for its inhibitory effect on Monoamine oxidase B at 40 uM

[20] = biological target: T2, Amine oxidase [flavin-containing] B; remark: listed apart in the source
Description: as §3

[21] = biological target: T1, Amine oxidase [flavin-containing] A; remark: listed apart in the source
Description: as §2

IC50 [1] [µM] | IC50 [2] [µM] | Structure (SMILES) | further results
1 | – | Cc1c(C)c2ccc(OCCc3ccccc3)cc2oc1=O | –
21.9 | 0.126 | Cc1cc(=O)c2cc(OCc3ccccc3)ccc2o1 | –
– | – | O=c1cc(-c2ccccc2)oc2cc(OCc3ccccc3)ccc12 | inhibition at 1 µM [4]: 6%; inhibition at 1 µM [5]: 6%
0.115 | 0.00741 | Cc1c(C)c2ccc(OCc3ccc(F)c(O)c3)cc2oc1=O | –
– | 6.76 | COc1cc2ccc(=O)oc2cc1OCc1ccccc1 | inhibition at 50 µM [6]: 18%
– | – | O=C1CCc2ccc(OCc3ccccc3)cc2O1 | inhibition at 4 µM [7]: 20%
– | 2.4 | c1ccc(COc2ccc3c(c2)OCO3)cc1 | inhibition at 30 µM [8]: 18%
3.63 | 0.234 | O=C1OCc2ccc(OCc3ccccc3)cc21 | –
16.2 | 1.05 | O=c1ccoc2cc(OCc3ccccc3)ccc12 | –
– | 58.9 | O=c1oc2cc(OCc3ccccc3)ccc2s1 | inhibition at 20 µM [9]: 0%
102 | 1.05 | O=C1CCc2ccc(OCc3ccccc3)cc2N1 | –
– | – | Cc1c(-c2ccccc2)c(=O)oc2cc(OCc3ccccc3)ccc12 | inhibition at 3 µM [10]: 8%; inhibition at 3 µM [11]: 4%
– | 1.82 | c1ccc(COc2ccc3ccoc3c2)cc1 | inhibition at 50 µM [12]: 30%
– | 0.631 | CC1C(=O)Nc2cc(OCc3ccccc3)ccc2C1C (centres undefined) | inhibition at 2 µM [13]: 0%
– | 1.38 | O=c1cc(C(F)(F)F)c2ccc(OCc3ccccc3)cc2o1 | –
– | – | O=c1cc(-c2ccccc2)oc2ccc(OCc3ccccc3)cc12 | inhibition at 3 µM [14]: 38%
– | 2.57 | c1ccc(COc2ccc3ccccc3c2)cc1 | inhibition at 8 µM [15]: 0%
– | – | O=c1ccc2cc(O[C@H]3O[C@H](CO)[C@@H](O)[C@@H](O)[C@@H]3O)c(OCc3ccccc3)cc2o1 | inhibition at 100 µM [16]: 15%; inhibition at 100 µM [17]: 11%
1 | 0.0347 | Cc1c(C)c2ccc(OCc3cccc(N)c3)cc2oc1=O | –
6.76 | 0.562 | O=c1ccoc2ccc(OCc3ccccc3)cc12 | –
– | – | O=C1NC(=O)c2cc(OCc3ccccc3)ccc21 | inhibition at 5 µM [18]: 25%
67.6 | – | Cc1ccc(S(=O)(=O)Nc2ccc3c(C)c(C)c(=O)oc3c2)cc1 | inhibition at 40 µM [19]: 29%
39.8 | 0.501 | c1ccc(COc2ccc3c(c2)OCC3)cc1 | –
3.55 | 0.324 | Cc1c(C)c2ccc(OC(C)c3ccccc3)cc2oc1=O (centres undefined) | –
0.407 | 0.0282 | Cc1c(C)c2ccc(/C=C/c3ccccc3)cc2oc1=O | –
23.4 | 2.04 | O=c1ccc2cc(OCc3ccccc3)c(O)cc2o1 | –
7.08 | – | CC(=O)Nc1cccc(COc2ccc3c(C)c(C)c(=O)oc3c2)c1 | –
40.7 | 12 | O=c1ccc2ccccc2o1 [COUMARIN] | –
– | – | O=c1ccc2cc(O[C@@H]3O[C@H](CO)[C@@H](O)[C@H](O)[C@H]3O)c(O)cc2o1 [ESCULIN] | inhibition at 100 µM [20]: 7%; inhibition at 100 µM [21]: 9%

Structure (SMILES) | IC50 [1] [µM] | IC50 [2] [µM] | further results
O=c1cc(O)c2ccc(OCc3ccccc3)cc2o1 | – | 1.58 | inhibition at 15 µM [3]: 26%
